The text below walks through data of publication PMC9112550, “Optimization of the antimicrobial peptide Bac7 by deep mutational scanning” (BMC Biology, 2022).

pIC50: −log10 of the molar value. Values joined by “and” are separate entries in the source; they are usually repeats but may differ in a detail not shown here. Equal values may be shown once. Where no end group is shown, it is not given here.

Series [1] concerns bacterial membranes. The settings on record: cited from earlier work. The procedure:
We next investigated whether an increased propensity to damage membranes could be the reason for the improved antimicrobial activity of Bac7PS. Membrane damage is the most frequent way AMPs kill bacteria and is often considered the reason for high toxicity against eukaryotic cells. […] Consequently, we investigated if Bac7PS had acquired a tendency to damage membranes, which could imply a greater risk for systemic human applications. Cell damage was assessed by measuring leakage of green fluorescent protein (GFP), ex ...

In series [2] the test system is bacteria. The note with it: cited from earlier work. An excerpt: One of the most intensively researched proline-rich AMPs is bactenecin-7 (Bac7). It is a 60 amino acid long linear peptide that was first isolated from bovine neutrophils. […] Measuring the antimicrobial activity of heavily mutated variants was valuable to determine the sequence-activity relationship of Bac7_1-23 because (i) the activity of specific amino acid res ... || Bac7PS excelled over Bac7_1-23 in terms of antimicrobial activity against clinical isolates including MDR bacteria and a decreased dependency on the SbmA transporter (Fig. 4a; Table 2). […] We mainly attribute the activity gain to the increased ability to penetrate membranes, which was accompanied by a slight increase in membrane damage at higher concentrations compared to Bac7_1-23 (Fig. 4b; Additional file 1 ...

The subject of series [3] is HEK 293 cells. Format: cell-based, human. The settings on record: MTT, 24 h, 37°C, triplicates, read-out: Toxicity IC50. As to the method: (§1) HeLa epithelioid cervix carcinoma cells (originally purchased: 93021013, Sigma Aldrich) and HEK 293 human embryonic kidney (originally purchased: 85120602, Sigma Aldrich) were routinely cultivated in Dulbecco’s MEM high glucose (DMEM, with L-glutamine, without phenol red, 1-26P32, Bioconcept, Allschwil, CH), supplemented with 10% fetal bovine serum (heat inactivated, sterile filtered, F9665, Sigma Aldrich) and 100 IU ml^−1/100 μg ml^−1 Penicillin/streptomycin (4-01F00, Bioconcept) at 37°C with 5% CO2. Cells were split at a confluency of ≤ 90% (every 3 to 4 days) and maintained for max. 10 passages before a fresh aliquot of cells were seeded. […] The cell concentration was determined using a Countess 2 device (Thermo Fisher Scientific) and approx. 5000 (HeLa) or 25,000 (HEK 293) cells were seeded into wells of a 96-well plate (F-bottom, PS, 655180, Greiner) together with 100 μl DMEM. […] For each dilution series, the IC50 value was determined by computing a weighted n-parameters logistic regression using the “nplr” package in R (https://CRAN.R-project.org/package=nplr). […]

The test system of series [4] is HeLa cells. The experiment in a line: In vitro toxicity assay (MTT), HeLa. In kind it is cell-based, human. The procedure: as §1
For series [5], the system named is mouse red blood cells. Briefly: Hemolysis assay. Format: cell-based. The note with it: 1 h, 37°C, DPBS, relative to Triton-X100 lysis control, triplicates. As to the method: Mouse blood was obtained from the ETH Phenomics Center. The erythrocytes were isolated by centrifugation at 500 × g for 10 min and removal of the blood plasma. The cells were washed three times by gently resuspending them in an equal volume of DPBS followed by centrifugation. After the last resuspension, the cells were diluted 1:50 in DPBS. For the hemolysis assay, a log2-serial dilution of each peptide was prepared as described for the MIC but using DPBS and 96-well plates (U-bottom, PP, 650201, Greiner) with a final volume of 100 μl. As lysis control, 2.5% Triton-X100 in DPBS was used in well 10, well 11 served as non-treated control (no peptide added), and well 12 as blank. To each well of the dilution plate, 100 μl of the red blood cells suspension was added. The plate was incubated for 1 h at 37°C. After incubation, the plate was centrifuged at 500 × g for 10 min and 100 μl of the supernatant was transferred to a clean 96-well plate (F-bottom, PS, 655101, Greiner). The absorbance was measured at 540 nm using an Infinite M1000 PRO plate reader (Tecan) and corrected by the measurements from the untreated wells. The lysis of each peptide concentration was expressed relative to the lysis control (set as 100% lysis). The hemolysis assay was performed in biological triplicates.

The subject of series [6] is E. coli BW25113. In kind it is cell-based. The note with it: E. coli BW25113 parental strain; MHB II; 18 h, 37°C; averaged (n>3). As to the method: (§2) Bacterial cells were grown in cation-adjusted Mueller Hinton Broth (MHB II) overnight to stationary phase. The cultures were then supplemented with 200 g l^−1 glycerol, aliquoted, and frozen at −80°C. […] The purified peptides were thawed and the concentration was determined by RP-HPLC as described before. The peptides were diluted with sterile water to 4-fold the desired assays starting concentration and to a final volume of 50 μl. […] The first well of each MIC dilution series was filled with 20 μl of 2-fold concentrated MHB II, wells 2–11 with 20 μl of MHB II, and well 12 with 40 μl MHB II (sterility control). Next, 20 μl of the peptide dilution was added to the first well, mixed, and a log2-serial dilution was performed from wells 1 to 10 (20 μl transfer volume). Well 11 served as growth control (i.e., no peptide added). In the last step, 20 μl of the bacterial cell suspension was added to wells 1–11 either using the pipetting robot (E. coli TOP10, BW25113, BW25113 ΔsbmA, and ATCC 25922) or by manual pipetting (E. coli clinical isolates). The plates were sealed airtight and incubated for 18 h without shaking at 37°C before reading the OD using an Infinite 200 PRO plate reader (Tecan, Männedorf, CH). The MIC value corresponded to the concentration at which no growth of the bacterial strain was observed (< 5% of the OD value of the growth control) and was evaluated using a custom-written script in the programming language R. MIC values of E. coli TOP10, BW25113, BW25113 ΔsbmA, and ATCC 25922 were determined at least in biological triplicates. All MIC experiments were determined in technical replicate.

Series [7] deals with E. coli ATCC 25922. In kind it is cell-based. The settings on record: E. coli ATCC 25922 quality control strain; MHB II; 18 h, 37°C; averaged (n>3). The procedure: as §2
In series [8] the test system is E. coli BW25113 ΔsbmA. Format: cell-based. As to the method:
as §2

The subject of series [9] is E. coli clinical isolates. Format: cell-based. The settings on record: clinical isolates of E. coli (n=45) including MDR (ESBL, CRE); MHB II; 18 h, 37°C. As to the method: as §2
Series [10] has as its system E. coli TOP10. In kind it is cell-based. The settings on record: MHB II, 18 h, 37°C, averaged (n>3), <5% of OD of growth control. As to the method:
as §2

For series [11], the system named is E. coli TOP10. The experiment in a line: Membrane damage assay in MHB II (GFP loss, PI uptake). The settings on record: at the MIC up to 8-fold higher concentrations, n = 3. In kind it is cell-based.

The pIC50 is −log10 of the IC50, conventionally taken in molar units. One may read the MIC as the smallest concentration in the dilution series that meets the test's criterion for growth inhibition. The MIC50 is an inhibitory concentration at the 50% level, which refers to growth in some studies and to a panel of isolates in others. Read a low MIC50 as higher susceptibility.

In the case of “Bac7: 60 amino acid long linear peptide first isolated from bovine neutrophils”, in [1], the “damage of bacterial membranes at its MIC” value is given as “not damage bacterial membranes”. The “activity against species of Gram-negative Enterobacteriaceae” value in series [2] is reported as “high activity”.
For the substance RRIRPRPPRLPRPRPRPLPFPRP [Bac7_1-23], the pIC50 in series [3] is 2.71; in series [4] (HeLa, MTT, 24 h, 37°C, triplicates) it was 2.84. Moreover, the “therapeutic index (TI), Toxicity/MIC” value in [4] (IC50 HeLa divided by MIC50 from clinical isolates) amounted to 195. The “Hemolysis of mouse red blood cells” value in series [5] (1xMIC (MIC measured for E. coli ATCC 25922)) is < 4% and 2.1%; in [5] (4xMIC (MIC measured for E. coli ATCC 25922)) it was < 7% and 6.4%. The MIC in [6] is 7.4 µM; in [7] it was 2.8 µM; in [8] (MHB II, 18 h, 37°C, averaged (n>3)) it was 52.1 µM; in series [10], 4.6 µM. The “antimicrobial activity against the SbmA transporter knockout strain” value in series [8] was “largely inactive”. The MIC50 in series [9] stood at 7.5 µM. The PI-positive cells in series [11] is on record as ~ 1%. Moreover, the “cells that retained GFP levels” value in series [11] is reported as ~ 99%.
